Measurements published in patent US20260217659A1, “COMPOUNDS, COMPOSITIONS AND USES THEREOF IN THE TREATMENT AND PREVENTION OF DISEASES AND CONDITIONS ASSOCIATE WITH OR AGGRAVATED BY IMPAIRED MITOPHAGY OR OXIDATIVE STRESS” (Yissum Research Development Company of The Hebrew …, priority 2023, published 2026).

What was measured:
[1] = test system: Hep-3B cells; test: Hep-3B cell survival; assay type: cell-based, human; conditions: single agent, 72 h
Procedure: (§1) FIGS. 6A-6E show how ST-480 and CQ effectively kill Hep-3B cancer cells. Bar graphs displaying the effects of ST-480 (6A) and CQ (6B) and their combined effect 6C) on Hep-3B cells' survival after 72 h—the experimental setup was similar Asterisks represent a comparison to vehicle control (6A and 6B) or towards (the same CQ concentration under vehicle treatment conditions (5C). *p<0.05, **p<0.01, ***p<0.001, ****p<0.0001. N=3 biological repeats. (5D) Representative images show the state of Hep-3B cells treated as described in (6C). Scale bar: 200 μm. (5E) BEAS-2B cells are not sensitive to ST-480, ns-non-significance. N-3. Error bars represent SEM.
(§2) To strengthen these conclusions, the impact of ST-480 and CQ was tested on another liver cancer cell line, namely Hep-3B′ the Hep-3B cell line originated from a person with primary hepatocellular carcinoma (HCC). […] In addition, the combined effect of ST-480 and CQ on Hep-3B survival was tested. […] In this respect, it should be emphasized that ST-480 was not toxic to non-cancer cells.

[2] = test system: Huh-7 cells; test: Huh-7 cell survival, MTT assay; assay type: cell-based, human; conditions: 72 h
Procedure: Huh-7 cells (2000 per well, in 96-wells plate) were treated with 100 μM of each compound. Cell viability was measured by MTT assay after 72 h. Asterisks represent a comparison to vehicle control. ****p<0.0001. N=3 biological repeats. Error bars represent SEM.
(§3) FIGS. 5A-5D show how ST-480 and CQ kill Huh-7 cells in a dose-dependent manner. (5A) Surviving curves in 200 mM paraquat (PQ). Worms were treated with ST-480 at the indicated concentrations or with the vehicle as a control for 48 h. Afterward, they were treated with 200 mM PQ, and their survival was measured after 3 and 6 h. N=6 biological repeats, P values are indicated (compared with the vehicle control). Bar graphs displaying the survival of Huh-7 cells in different doses of CQ (4B) and ST-480 (5C) —the experimental setup was similar to that described in FIG. 1. Asterisks represent a comparison to vehicle control. N=3 biological repeats. (5D) Bar graph showing the combined effect of ST-480 and CQ on Huh-7 cells' survival after 72 h. *p<0.05, ***p<0.001, ****p<0.0001. N=3 biological repeats. *Error bars represent SEM.
ST-480, is one of the diamine compounds of the invention that inhibits liver cancer cell viability. […] Therefore, the activity of the polyamine compound of the invention in liver cancer therapy. To explore this, the inventors screened the effect of eight new compounds. In addition, the effect of two compounds in the context of lifespan, health-span, and proteotoxicity, i.e., the diamines VL-004 and VL-850 were examined, and the natural polyamine spermidine (Spd). Huh-7 cells (derived from hepatocellular carcinoma of a person) were exposed to 100 μM of each compound and examined their survival after 72 h using an MTT assay.
Chloroquine (CQ) has been used safely to treat malaria and to suppress autophagic flux. Moreover, as indicated above, it induces DNA damage and apoptosis in cancer cells. The effect of different CQ concentrations on Huh-7 cells' survival after 72 h were tested. In parallel, dose-response experiments testing ST-480 toxicity in these cells were performed.

[3] = test system: BEAS-2B cells; test: BEAS-2B non-cancer cell survival; assay type: cell-based; conditions: 70 µM and 100 μM, 72 h
Procedure: as §1, §2

[4] = test system: C. elegans; test: Survival of worms in 200 mM paraquat (oxidative stress resistance); assay type: in vivo; conditions: 48 h treatment, then 200 mM paraquat, survival after 3 and 6 h
Procedure: as §3
Chloroquine (CQ) enhances ST-480 cytotoxicity.

[5] = test system: Hep-3B cells; test: Mitophagy: colocalization of mitochondria and lysosomes in Hep-3B cells; assay type: cell-based, human; conditions: 100 μM, 6 h
Procedure: FIGS. 7A-7B show how ST-480 induces mitophagy. (7A) Colocalization of mitochondria and lysosome. Arrowheads indicate representative colocalization. The inset represents an eight-fold enlargement-scale bar: 50 μm. (7B) Colocalization quantification. N=3, ≥412 cells per treatment. *p<0.05, Error bars represent SEM.
ST-480 induces mitophagy in Hep-3B cells. To explore whether ST-480 induces mitophagy, Hep-3B cells were exposed to 100 μM ST-480 or vehicle control for 6 h. To measure mitophagy, the colocalization of mitochondria and lysosomes were quantified using specific mitochondrial and lysosomal dyes. In addition, nuclei were stained using a DNA dye—For this, the Cytopainter ab139487 kit, was used.

[6] = test system: NCI-H69 cells; test: XTT proliferation inhibition, NCI-H69; assay type: cell-based; conditions: Homo sapiens, NCI-H69, lung cancer (NSCLC), 72 h
Procedure: (§4) Cell lines: PANC-1. Organism: Homo sapiens, human/Tissue: Pancreas; Duct/Disease: Epithelioid Carcinoma HUH7. Organism: Homo sapiens, human/Tissue: Liver/Disease: Carcinoma; Hepatocellular NCI-H69. Organism: Homo sapiens, human/Tissue: Lung/Disease: NSCL U87 MG. Organism: Homo sapiens, human/Tissue: Brain/Disease: Glioma
(§5) PANC-1, HUH7, NCI-H69 and U87 MG cells are plated in one 96 well plate each, in their culture medium, at 7500 cells/well. Cells are allowed to attach for 16-24 hours at 37° C., 5% CO2. Thereafter, culture medium is discarded, and fresh culture medium is added to the cells, supplemented with elevating ST-1944 concentrations: 0.4, 2, 10 and 50 μM, 3 wells of each concentration (triplicates). The cells are incubated another 72±2 hours at 37° C., 5% CO2. At the end of incubation period, medium is discarded and 100 μL fresh culture medium is added to the cells along with 50 μL XTT reagent. The OD is measured in a plate reader once Vehicle treated cells are reach the range of 0.5-1.5 OD at 450 nm wavelength.
(§6) PANC-1 and HUH7culture medium: DMEM Medium (4.5 g/L glucose), supplemented with 10% FBS (heat inactivated), 2 mM L-Glutamine, and 1% of Pen/Strep Solution. U87 MG and NCI-H69 culture medium: EMEM Medium, supplemented with 10% FBS (heat inactivated), 2 mM L-Glutamine, and 1% of Pen/Strep Solution. […]

[7] = test system: U87 MG cells; test: XTT proliferation inhibition, U87 MG; assay type: cell-based; conditions: Homo sapiens, U-87 MG, glioma (GBM), 72 h
Procedure: as §4, §5, §6

[8] = test system: PANC-1 cells; test: XTT proliferation inhibition, PANC-1; assay type: cell-based; conditions: Homo sapiens, Panc-1, pancreatic cancer, 72 h
Procedure: as §4, §5, §6

[9] = test system: HUH7 cells; test: XTT proliferation inhibition, HUH7; assay type: cell-based; conditions: Homo sapiens, Huh-7, HUH7, liver cancer (HCC), 72 h
Procedure: as §4, §5, §6

Row | IC50 [6] [µM] | IC50 [7] [µM] | IC50 [8] [µM] | IC50 [9] [µM] | Structure (SMILES) | Hep-3B cells' survival [1] | Huh-7 cells' survival, dose response ([2]; CQ at 7, 8, and 10 μM) | cell death of non-cancer BEAS-2B cells [3] | Huh-7 cell survival ([2]; 100 μM, MTT assay) | Huh-7 cells' survival, dose response ([2]; ST-480 at 60, 80, and 100 μM) | resistance to oxidative stress [4] | mitophagy (colocalization of mitochondria and lysosomes) [5]
1 |  |  |  |  | CCN(CC)CCCC(C)Nc1ccnc2cc(Cl)ccc12 (stereo not drawn) [CQ, chloroquine, reference compound] | sensitive to both ST-480 and CQ in a dose-dependent manner | significantly decreased cells' survival |  |  |  |  | 
2 |  |  |  |  | NCCCCc1ccccc1CCCCN [ST-480] | sensitive to both ST-480 and CQ in a dose-dependent manner |  | did not observe a significant cell death | significantly decreased Huh-7 cell survival | significantly decreased cells' survival | confer resistance to oxidative stress | induces mitophagy in a significant manner
3 | 10 | 10 | 1 | 2 | Cn1ccnc1SCCCCc1ccccc1CCCCSc1nccn1C [ST-1944] |  |  |  |  |  |  | 
